Laboratory results published in patent US20100069504A1, “AMINOBENZOCYCLOHEPTENE DERIVATIVES, METHODS FOR PREPARING THE SAME AND USES THEREOF IN THERAPY” (UNIVERSITE DE HAUTE ALSACE, priority 2006, published 2010).
Where a name gives a salt, the structure may show the parent alone. Read-outs that look alike come from different tables or passages of the source.

Experiments:
[1] = target: T1, cytosolic leucine aminopeptidase (LAPc) (EC3.4.11.1) (Bos taurus, UniProt P00727); assay: LAPc inhibition, Ki by spectrophotometry (Dixon method); type: biochemical, bovine
T1 construct: The LAPc enzymes from bovine livers; purchased Sigma Chemical Corporation; host or cells: bovine livers (tissue)
T1 sequence (P00727 1-519): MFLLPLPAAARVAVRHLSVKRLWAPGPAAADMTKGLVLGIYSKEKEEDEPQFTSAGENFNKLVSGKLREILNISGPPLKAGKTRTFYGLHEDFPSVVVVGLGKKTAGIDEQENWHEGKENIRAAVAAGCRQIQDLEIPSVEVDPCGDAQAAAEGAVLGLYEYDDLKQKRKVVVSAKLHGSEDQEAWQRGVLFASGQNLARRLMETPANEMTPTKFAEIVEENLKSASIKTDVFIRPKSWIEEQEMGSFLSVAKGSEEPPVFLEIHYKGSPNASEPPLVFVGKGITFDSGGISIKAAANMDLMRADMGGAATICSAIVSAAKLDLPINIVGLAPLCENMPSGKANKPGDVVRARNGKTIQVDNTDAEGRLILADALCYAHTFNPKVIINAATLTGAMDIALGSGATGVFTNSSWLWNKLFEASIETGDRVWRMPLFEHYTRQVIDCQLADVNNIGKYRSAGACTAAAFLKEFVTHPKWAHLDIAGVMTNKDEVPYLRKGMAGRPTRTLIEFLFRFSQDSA
Description: (§1) LTA4H has an aminopeptidase type activity similar to AP-N and a very close substrate specificity. It is important for the AP-N inhibitory molecules neither to inhibit LTA4H nor aminopeptidases that contain a co-catalytic unit like LAPc.
(§2) The LAPc enzymes from bovine livers and AP-N from porcine livers are marketed by Sigma Chemical Corporation. The AP-N is purified in a soluble form according to the method described by Wacker, H., Lecky, P., Fischer E. H., Stein, E. A. Hely. Chim.
(§3) The kinetic studies are carried out at 30° C. and the reactions are started up by adding the enzymes in 1 mL of test medium: LAPc, 5 units in 10 mM Tris-HCl, 0.1 mM ZnCl2, 5 mM MnCl2, 1 M KCl, pH=8.0; AP-N, 25 mUnits in 10 mM Tris-HCl, pH=7.5 and LTA4H, 5 μg in 10 mM Tris-HCl, 0.1 mM KCl, pH=7.5.
(§4) All the inhibitory molecules are assessed as an hydrochloride and in racemic mixture.

[2] = target: T2, human recombinant leukotriene A4 hydrolase (LTA4H) (EC3.3.2.6) (Homo sapiens, UniProt P09960); assay: LTA4H aminopeptidase inhibition, Ki by spectrophotometry (Dixon method); type: biochemical; conditions: alanine para-nitroanilide substrate, 30° C., pH=7.5; hydrochloride, racemic mixture
T2 sequence (P09960 1-611): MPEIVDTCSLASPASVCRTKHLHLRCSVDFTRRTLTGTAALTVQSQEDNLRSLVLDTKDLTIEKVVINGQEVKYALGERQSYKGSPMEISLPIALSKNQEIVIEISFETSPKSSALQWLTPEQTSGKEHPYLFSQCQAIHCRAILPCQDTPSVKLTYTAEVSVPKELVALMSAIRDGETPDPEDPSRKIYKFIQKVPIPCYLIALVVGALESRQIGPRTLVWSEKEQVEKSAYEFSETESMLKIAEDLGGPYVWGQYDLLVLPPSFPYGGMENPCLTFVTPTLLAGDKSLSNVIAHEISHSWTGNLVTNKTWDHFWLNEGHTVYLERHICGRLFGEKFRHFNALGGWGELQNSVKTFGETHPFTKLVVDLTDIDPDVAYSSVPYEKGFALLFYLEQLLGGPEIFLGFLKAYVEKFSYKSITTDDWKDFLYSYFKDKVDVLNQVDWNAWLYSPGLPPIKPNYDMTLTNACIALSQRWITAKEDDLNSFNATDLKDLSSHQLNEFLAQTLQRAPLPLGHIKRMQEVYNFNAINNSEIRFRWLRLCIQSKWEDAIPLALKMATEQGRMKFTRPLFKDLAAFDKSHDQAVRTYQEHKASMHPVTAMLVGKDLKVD
Experimental: as §1, §3, §4

AP-N (EC3.4.11.2) = target: T3, AP-N (EC3.4.11.2) (Sus scrofa, UniProt P15145); assay: AP-N inhibitory activity, inhibition constant Ki by spectrophotometry (Dixon method); type: biochemical, porcine; conditions: L-leucine para-nitroanilide substrate, 30° C., pH=7.5; hydrochloride, racemic mixture
T3 construct: The AP-N is purified in a soluble form according to the method described by Wacker; purchased Sigma Chemical Corporation; host or cells: porcine livers (tissue)
T3 sequence (P15145 33-963 limits assumed): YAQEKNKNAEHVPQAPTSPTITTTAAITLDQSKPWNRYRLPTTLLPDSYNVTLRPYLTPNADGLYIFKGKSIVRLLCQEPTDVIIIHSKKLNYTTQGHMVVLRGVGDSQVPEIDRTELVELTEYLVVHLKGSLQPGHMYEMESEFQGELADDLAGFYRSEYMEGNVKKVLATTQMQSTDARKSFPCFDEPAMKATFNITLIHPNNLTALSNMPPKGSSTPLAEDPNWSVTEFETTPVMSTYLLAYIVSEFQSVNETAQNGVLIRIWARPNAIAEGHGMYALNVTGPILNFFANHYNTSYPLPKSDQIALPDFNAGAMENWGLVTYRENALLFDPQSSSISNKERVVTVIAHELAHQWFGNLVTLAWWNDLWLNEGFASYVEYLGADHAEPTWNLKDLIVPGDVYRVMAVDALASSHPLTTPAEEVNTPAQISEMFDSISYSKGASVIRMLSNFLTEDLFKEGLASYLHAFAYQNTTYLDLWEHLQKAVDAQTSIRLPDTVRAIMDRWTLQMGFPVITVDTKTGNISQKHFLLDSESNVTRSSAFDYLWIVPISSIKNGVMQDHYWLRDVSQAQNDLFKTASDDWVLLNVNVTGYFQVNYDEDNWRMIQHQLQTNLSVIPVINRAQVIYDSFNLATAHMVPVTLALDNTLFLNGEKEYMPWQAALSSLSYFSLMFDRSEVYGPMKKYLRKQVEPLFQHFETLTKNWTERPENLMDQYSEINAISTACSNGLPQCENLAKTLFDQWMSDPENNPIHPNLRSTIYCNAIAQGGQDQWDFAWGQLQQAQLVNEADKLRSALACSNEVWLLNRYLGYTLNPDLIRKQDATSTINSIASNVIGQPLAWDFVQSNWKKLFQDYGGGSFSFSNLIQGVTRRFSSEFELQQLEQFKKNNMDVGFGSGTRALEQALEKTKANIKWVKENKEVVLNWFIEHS
Description: as §1, §2, §3, §4

AP-N from porcine livers = target: T4, AP-N from porcine livers (Sus scrofa, UniProt P15145); assay: Stability in aqueous solution, followed by AP-N inhibition over at least 10 hours; type: biochemical; conditions: read-out: inhibition of AP-N throughout the test
T4 construct: The AP-N is purified in a soluble form according to the method described by Wacker; purchased Sigma Chemical Corporation; host or cells: porcine livers (tissue)
T4 sequence (P15145 33-963 limits assumed): T3 sequence (P15145 33-963 limits assumed)
Experimental: The enzymatic tests are carried out at 25° C. in 20 mM Tris-HCl, pH=7.5 with 0.2 mM L-leucine para-nitroanilide as a substrate, in a total reaction volume of 1 mL. […] The reaction is started up by adding 3 milliunits of AP-N from porcine livers.
Under these experimental conditions, the linear kinetics is monitored for at least 10 hours.

[3] = L-leucine para-nitroanilide substrate, 30° C., pH=8.0, hydrochloride, racemic mixture, read-out: Ki (M) LAPc (EC3.4.11.1)

## NC1CCc2cccc(-c3ccccc3)c2CC1=O (racemic) [EX 7, 7-amino-4-phenyl-5,7,8,9-tetrahydro-benzocyclohepten-6-one hydrochloride]
[1]; [3]
  Ki: 2e-05 M
[2]
  Ki: > 1000 µM

## NC1Cc2ccccc2CC1=O (racemic) [EX 10, 2-amino-3-tetralone, reference compound]
[1]
  Ki: 0.00012 M
[2]
  Ki: > 1000 µM

## Cl.NC1CCc2ccccc2CC1=NO (stereo not drawn)
other
  melting point: 270 to 280 °C

## NC1CCc2ccccc2C(SCc2ccccc2)C1=O (racemic) [EX 8, 5-benzylsulphanyl-7-amino-5,7,8,9-tetrahydro-benzocyclohepten-6-one hydrochloride]
AP-N (EC3.4.11.2)
  Ki: 0.08 µM
[1]; [3]
  Ki: > 0.001 M
[2]
  Ki: > 1000 µM

## NC1CCc2c(Br)cccc2CC1=O (racemic) [EX 9, 7-amino-1-bromo-5,7,8,9-tetrahydro-benzocyclohepten-6-one hydrochloride]
[1]; [3]
  Ki: > 0.001 M
[2]
  Ki: > 1000 µM

## NC1CCc2ccccc2C(F)C1=O (racemic) [EX 3, 7-amino-5-fluoro-5,7,8,9-tetrahydro-benzocyclohepten-6-one hydrochloride]
AP-N (EC3.4.11.2)
  Ki: 0.3 µM
[1]; [3]
  Ki: > 0.001 M
[2]
  Ki: > 1000 µM

## Cl.NC1CCc2ccccc2C(CCCc2ccccc2)C1=O (racemic) [EX 6, 5-phenylpropyl-7-amino-5,7,8,9-tetrahydro-benzocyclohepten-6-one hydrochloride]
other
  melting point: 156 to 158 °C
AP-N (EC3.4.11.2)
  Ki: 12 µM
[1]; [3]
  Ki: > 0.001 M
[2]
  Ki: > 1000 µM

## Cl.NC1CCc2ccccc2CC1=O (racemic) [EX 2, 7-amino-5,7,8,9-tetrahydro-benzocyclohepten-6-one hydrochloride]
AP-N (EC3.4.11.2)
  Ki: 1 µM
AP-N from porcine livers
  inhibition at 200 µM: 50%
[1]; [3]
  Ki: > 0.001 M
[2]
  Ki: > 1000 µM
